Laboratory results as given in US10940139B2, “Compounds that interact with the Ras superfamily for the treatment of cancers, inflammatory diseases, rasopathies, and fibrotic disease” (Shy Therapeutics LLC, priority 2017, dated 2021).

Key:
[1] = target: Rac-1 (Homo sapiens (Human), UniProt P63000); assay: Rac inhibition assay (labeled GTP); assay type: binding; details: read-out: Rac-1 % Inh.
[2] = target: KRas G12D/Q61H double mutant (Homo sapiens (Human), UniProt P01116, G12D/Q61H); assay: Ras GTP binding domain inhibition assay (labeled GTP); details: at 20 μM; read-out: KRas G12D Q61H % Inh.
Sequence of KRas G12D/Q61H double mutant (P01116-2 other isoform, or with tags, fused parts or gaps G12D/Q61H): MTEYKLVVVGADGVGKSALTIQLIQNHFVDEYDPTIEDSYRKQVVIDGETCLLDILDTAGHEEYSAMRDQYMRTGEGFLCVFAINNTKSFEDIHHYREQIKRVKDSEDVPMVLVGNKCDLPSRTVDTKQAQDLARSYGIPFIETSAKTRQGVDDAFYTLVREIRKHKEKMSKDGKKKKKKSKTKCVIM
Method in brief: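 His-tagged KRas protein (3-10 μg/ml) was captured overnight at 4° C on nickel-coated wells in 50 mM Tris pH 7.5, 1 mM MgCl2, 1 mM DTT. Bound labeled GTP was read by fluorescence after washing.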

[3] = target: Rho-A (Homo sapiens (Human), UniProt P61586); assay: Rho inhibition assay (labeled GTP); assay type: binding; details: read-out: Rho-A % Inh.
Sequence of Rho-A (P61586 whole entry, the tested form may be a part): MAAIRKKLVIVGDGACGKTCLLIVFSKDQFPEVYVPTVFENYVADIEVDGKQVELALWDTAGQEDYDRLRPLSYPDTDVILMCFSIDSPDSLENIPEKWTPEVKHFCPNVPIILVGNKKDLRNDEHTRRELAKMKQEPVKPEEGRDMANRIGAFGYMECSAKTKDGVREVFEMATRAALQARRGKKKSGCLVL

[4] = target: KRas G12D mutant protein (Homo sapiens (Human), UniProt P01116, G12D); assay: Ras GTP binding domain inhibition assay (labeled GTP); details: at 20 μM; read-out: KRas G12D % Inh.
Sequence of KRas G12D mutant protein (P01116-2 other isoform, or with tags, fused parts or gaps G12D): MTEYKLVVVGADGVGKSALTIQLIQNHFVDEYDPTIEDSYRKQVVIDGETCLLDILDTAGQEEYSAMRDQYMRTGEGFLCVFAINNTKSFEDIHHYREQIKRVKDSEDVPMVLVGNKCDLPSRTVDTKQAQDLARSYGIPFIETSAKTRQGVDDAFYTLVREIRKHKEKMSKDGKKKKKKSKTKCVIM

SMILES	inhibition at 20 µM [1]	inhibition at 20 µM [2]	inhibition at 20 µM [3]	inhibition at 20 µM [4]
Nc1nc(-c2ccccn2)nc2ccsc12 [drawing 3706]	76 to 100%	25 to 50%	76 to 100%	1 to 25%
Cc1cc2nc(-c3ccccn3)nc(N)c2s1 [drawing 3708]	76 to 100%	51 to 75%	76 to 100%	51 to 75%
O=C(c1csc2c(O)nc(-c3ccccn3)nc12)N1CC2CC1CN2c1ccccc1 (stereo not shown) [drawing 3710]	76 to 100%	76 to 100%	76 to 100%	51 to 75%
O=C(c1csc2c(O)nc(-c3ccccn3)nc12)N1CCC(c2ccncc2)C1 (stereo not shown) [drawing 3711]	51 to 75%	51 to 75%	76 to 100%	51 to 75%
O=C(c1csc2c(O)nc(-c3ccccn3)nc12)N1CCC(c2cccc(O)c2)C1 (stereo not shown) [drawing 3712]	76 to 100%	76 to 100%	76 to 100%	76 to 100%
O=C(c1cc2nc(-c3ccccn3)nc(O)c2s1)N1CCN(c2ccccc2)CC1 [drawing 3713]	76 to 100%	51 to 75%	76 to 100%	51 to 75%
Oc1nc(-c2ccccn2)nc2c(-c3cc(Cl)cc(Cl)c3)csc12 [drawing 3720]	25 to 50%	25 to 50%	51 to 75%	25 to 50%
Oc1nc(-c2ccccn2)nc2c(-c3cccc4c3OCO4)csc12 [drawing 3721]	51 to 75%	51 to 75%	51 to 75%	25 to 50%
O=C(O)c1cc2nc(-c3ccccn3)nc(O)c2s1 [drawing 3722]	76 to 100%	51 to 75%	76 to 100%	51 to 75%
Oc1nc(-c2ccccn2)nc2sc3c(c12)CCNC3 [drawing 3723]	76 to 100%	51 to 75%	76 to 100%	76 to 100%
Oc1nc(-c2ccccn2)nc2sc3c(c12)CCCNC3 [drawing 3724]	76 to 100%	25 to 50%	51 to 75%	51 to 75%
Cc1cnc(-c2ccccn2)nc1NC(=O)Cc1ccc2cnccc2c1 [drawing 3728]	76 to 100%	51 to 75%	76 to 100%	51 to 75%
O=C(COCc1ccnc(O)c1)Nc1nc(-c2ccccn2)nc2sccc12 [drawing 3729]	51 to 75%	51 to 75%	51 to 75%	25 to 50%
Nc1nc(-c2ccccn2)nc2c(-c3ccccc3)csc12 [drawing 3731]	51 to 75%	25 to 50%	51 to 75%	25 to 50%
Oc1nc(-c2ccccn2)nc2c(-c3cc(F)ccc3OC(F)F)csc12 [drawing 3732]	51 to 75%	25 to 50%	25 to 50%	51 to 75%
Cn1nnc2ccc(-c3csc4c(O)nc(-c5ccccn5)nc34)cc21 [drawing 3733]	76 to 100%	51 to 75%	51 to 75%	51 to 75%
O=S1(=O)CCN(Cc2cccc(-c3csc4c(O)nc(-c5ccccn5)nc34)c2)CC1 [drawing 3736]	76 to 100%	51 to 75%	76 to 100%	51 to 75%
Oc1nc(-c2ccccn2)nc2c(-c3ccccc3F)csc12 [drawing 3740]	76 to 100%	51 to 75%	76 to 100%	51 to 75%
COc1ccccc1-c1csc2c(O)nc(-c3ccccn3)nc12 [drawing 3742]	76 to 100%	25 to 50%	51 to 75%	51 to 75%
Oc1nc(-c2ccccn2)nc2c(-c3ccc(F)cc3F)csc12 [drawing 3743]	51 to 75%	51 to 75%	51 to 75%	51 to 75%
COc1cccc(-c2csc3c(O)nc(-c4ccccn4)nc23)c1 [drawing 3744]	51 to 75%	25 to 50%	51 to 75%	76 to 100%
Oc1nc(-c2ccccn2)nc2c(-c3cccc(C(F)(F)F)c3)csc12 [drawing 3745]	51 to 75%	25 to 50%	25 to 50%	51 to 75%
COc1ccc(F)cc1-c1csc2c(O)nc(-c3ccccn3)nc12 [drawing 3746]	51 to 75%	51 to 75%	51 to 75%	51 to 75%

SMILES	inhibition at 20 µM [1]	inhibition at 20 µM [2]	inhibition at 20 µM [3]	inhibition at 20 µM [4]
Oc1nc(-c2ccccn2)nc2c(-c3ccsc3)csc12 [drawing 3747]	76 to 100%	25 to 50%	51 to 75%	51 to 75%
Oc1nc(-c2ccccn2)nc2c(-c3ccc(OC(F)F)cc3F)csc12 [drawing 3748]	76 to 100%	51 to 75%	76 to 100%	51 to 75%
Oc1nc(-c2ccccn2)nc2c(-c3ccc4c(c3)OCO4)csc12 [drawing 3751]	76 to 100%	51 to 75%	51 to 75%	51 to 75%
CC(C)(O)c1ccc(-c2csc3c(O)nc(-c4ccccn4)nc23)c(F)c1 [drawing 3752]	76 to 100%	51 to 75%	51 to 75%	51 to 75%
COc1ccc(-c2csc3c(O)nc(-c4ccccn4)nc23)c(C)c1 [drawing 3753]	76 to 100%	51 to 75%	76 to 100%	51 to 75%
CNC(=O)c1ccc(-c2csc3c(O)nc(-c4ccccn4)nc23)cc1C [drawing 3757]	51 to 75%	25 to 50%	51 to 75%	25 to 50%
OCC1(c2ccc(-c3csc4c(O)nc(-c5ccccn5)nc34)cc2)CC1 [drawing 3758]	76 to 100%	51 to 75%	76 to 100%	76 to 100%
Cc1cnccc1-c1csc2c(O)nc(-c3ccccn3)nc12 [drawing 3760]	76 to 100%	51 to 75%	76 to 100%	51 to 75%
O=C(CCn1ccnc1)Nc1nc(-c2ccccn2)nc2sccc12 [drawing 3761]	76 to 100%	51 to 75%	76 to 100%	76 to 100%
O=C(CCc1nn[nH]n1)Nc1nc(-c2ccccn2)nc2sccc12 [drawing 3762]	76 to 100%	51 to 75%	76 to 100%	51 to 75%
O=C(CCc1cncnc1)Nc1nc(-c2ccccn2)nc2sccc12 [drawing 3763]	76 to 100%	51 to 75%	76 to 100%	51 to 75%
Oc1nc(-c2ccccn2)nc2c(-c3ccccn3)csc12 [drawing 3768]	51 to 75%	1 to 25%	51 to 75%	25 to 50%
CN1CCN(c2nc(-c3ccccn3)nc3scc(C(=O)NCCc4cnc(O)nc4)c23)CC1 [drawing 3771]	51 to 75%	25 to 50%	51 to 75%	51 to 75%
Oc1nc(-c2ccccn2)nc2c(-c3cc(F)cc(F)c3)csc12 [drawing 3772]	51 to 75%	51 to 75%	51 to 75%	51 to 75%
CN(C)Cc1ccc(F)c(-c2csc3c(O)nc(-c4ccccn4)nc23)c1 [drawing 3773]	51 to 75%	25 to 50%	76 to 100%	51 to 75%
Cc1sc2c(O)nc(-c3ccccn3)nc2c1-c1ccccc1 [drawing 3777]	51 to 75%	51 to 75%	51 to 75%	51 to 75%
Cc1sc2c(O)nc(-c3ccccn3)nc2c1-c1cccnc1 [drawing 3786]	51 to 75%	25 to 50%	25 to 50%	51 to 75%
COc1cnc(-c2ccccn2)nc1O [drawing 3787]	76 to 100%	51 to 75%	76 to 100%	51 to 75%
COc1nc(-c2ccccn2)nc2c(C3CCCC3)csc12 [drawing 3789]	76 to 100%	51 to 75%	51 to 75%	25 to 50%
Cc1c(C(=O)O)sc2c(O)nc(-c3ccccn3)nc12 [drawing 3794]	76 to 100%	51 to 75%	51 to 75%	25 to 50%
Oc1nc(-c2ccccn2)nc2c(C3CCC3)csc12 [drawing 3797]	76 to 100%	51 to 75%	76 to 100%	51 to 75%
CC(C)Oc1cnc(-c2ccccn2)nc1O [drawing 3800]	76 to 100%	51 to 75%	76 to 100%	51 to 75%
Oc1nc(-c2ccccn2)nc2c(CC3CCNCC3)csc12 [drawing 3805]	51 to 75%	51 to 75%	76 to 100%	51 to 75%
